From publication PMC4149238, “Systemic delivery of P42 peptide: a new weapon to fight Huntington’s disease” (Acta Neuropathologica Communications, 2014)
Residues, ends and D or L forms follow the SMILES beside them. *: point of attachment. 5TAMRA = CN(C)c1ccc2c(c1)Oc1cc(N(C)C)ccc1C21OC(=O)c2cc(C(=O)*)ccc21

Legend:
[1] = test system: HeLa cells; assay: Internalization of exogenous peptide into HeLa cells; type: cell-based, human; settings: synthetic TAMRA end-labelled peptide in culture medium, anti-TAMRA immunostaining, confocal
Experimental: (§1) HeLa cells were grown and maintained in DMEM medium (Gibco) supplemented with 10% fetal calf serum and glutamine. HeLa cells were grown in 6 well plates, and pDdest53-GFP-hHtt^171aa-136Q (0.75 μg) was transfected with JetPei reagent (Qbiogene). Equal amounts of pcDNA-Cherry-P42 or control vector were added for each transfection to level the total amount of plasmid DNA. To test the internalization of exogenous peptide, synthesized TAMRA-P42-TAT was added at the same time as pDest53-GFP-hHtt^171aa-Q136 transfection, at different concentrations (0, 0.5, 1, 5, 10 or 20 μM). Cells were incubated with plasmid and peptide for 12 h. Then the medium was washed twice with PBS, the cells trypsinized, and grown on a coverslip with new DMEM medium for 6 h. This step was necessary to eliminate the peptide that crystallizes on the well. Eventually, cells were fixed with 4% paraformaldehyde and immunostained for microscopic analysis. To observe the internalization of the peptide TAMRA-P42-TAT, the signal was amplified by anti-TAMRA immunostaining (1:500- Invitrogen). Nuclei were counterstained with DAPI (4′, 6 diamino-2-phenylindole). The pictures were taken with a confocal laser scanning microscope model LSM780 (Carl Zeiss).

[2] = test system: HeLa cells; assay: MTT test of HeLa cell survival; type: cell-based, human; settings: large excess of peptide, data not shown
[3] = test system: brain of wild-type C57BL/6 J mice; assay: Brain distribution of TAMRA-P42-TAT after ICV injection; type: in vivo, mouse
Experimental: To test the stability of the peptide in the brain, single intracerebroventricular (ICV) injection of peptides was performed in the right ventricle of C57BL/6 mice as described in [15]. 5 μg or 1 μg of TAMRA-P42-TAT were stereotaxically injected into the right lateral ventricle (coordinates 1 mm right lateral to bregma and 3 mm ventral to the skull surface) of C57BL/6 J mice using a 10 μl Hamilton syringe at a rate of 0.2 μl to 1 μl/min. As a control, saline was injected in the same volume and at the same rate. […]
TAMRA-P42-TAT injected mice were also immunostained with rabbit monoclonal anti-DARPP32 (MAb2306 - Cell Signaling Technology - 1: 1600), secondary detected by Alexa 488 anti-rabbit (1: 2000) to label the striatum, and with mouse monoclonal anti-NeuN (MAB377 – Millipore - 1: 1000), secondary detected by Dye light blue anti-mouse (1: 500), as a neuronal marker.

[4] = test system: flies expressing hHtt exon1 with expanded polyQ; settings: cited from earlier work
Description: Most research undertaken to find a cure for HD focus on the mutated allele (trying to reduce its expression), or on the polyQ stretch that is responsible for aggregation, but that is also present in other neurodegenerative diseases. Our approach is based on the observation that the ratio between normal and mutant Huntingtin is a crucial factor in the onset and progression of the disease. In a previous work, we confirmed the protective role of wild-type N-terminus Htt. We further screened human hHtt, for peptides able to prevent polyQ-hHtt aggregation i ... || The efficient rescue supported by P42 administration represents one of the best therapeutic effects described so far. Therapeutic research currently targets mutant Htt at transcriptional or post-translational level. The recent works in RNA interference or ASO strategies attempt to reduce the expression of the mutant transcript. Despite recent progress, the limitation of this approach lays in the effects on the wild-type allele and the aggravation of the loss of function effects. Biochemical molecules and intrabodies have also been designed against the protein, in order to target abnorma ...

[5] = test system: GFP-hHtt^171aa-Q136 aggregation; assay: polyQ-hHtt aggregation in transfected HeLa cells (microscopy); type: cell-based, human; settings: HeLa cells co-transfected with GFP-hHtt171aa-Q136 and vector expressing Cherry-tagged peptide, vs empty vector
Experimental: as §1

[6] = mice brain soluble extract, 15 μg peptide, incubation 0, 1, 3 and 6 h, MALDI-MS
Description: MALDI MS and MS/MS analysis: Spectra acquisition has been performed using the 4800 Plus MALDI TOF/TOF^TM mass spectrometer (ABSciex) controlled by the 4000 Series Explorer^TM. MS spectra were acquired in a reflector positive mode (mass range: m/z 700–4000, laser intensity set at 50% and 3000 total laser shots per spectrum, MS resolution ≥ 12000–17000). MS/MS precursor was selected manually with an absolute mass window of 1 Da and each MS/MS spectrum is the result of 1000 total laser shots with a laser intensity set at 50% and a MS/MS resolution ≥ 2000–5000. The fragmentation was performed at collision energy of 2 kV and a collision air pressure set at 10^−6 Torr.

[7] = test system: brain of wild-type C57BL/6 J mice; assay: Brain targeting after buccal/rectal NP42T (MALDI Imaging Mass Spectrometry); type: in vivo, mouse; settings: NP42T 210 μg, four buccal and four rectal administrations, 3 h, MALDI IMS, two mice
Experimental: For MALDI analysis, wild-type C57BL/6 J mice have been injected either by ICV (2.1 μg), or treated with empty NP, or with NP42T (210 μg) microemulsions. For NP and NP42T, four buccal and four rectal administrations (1 ml/kg) have been performed, spaced by 30 minutes to ensure mucosa internalization. Two mice have been treated for each condition and sacrificed 3 h after the injections.
Tissue preparation and MALDI imaging analysis: Frozen brain sections were cut in 15 μm slices using an HM 550 OVPD cryostat (Fisher Scientific, Illkirch, France), set at −20°C, mounted on ITO coated conductive glass slides and allowed to thaw and desiccate in a vacuum desiccator. Tissue sections were then coated manually with a 10 mg/ml α-cyano-4-hydroxycinnamic acid dissolved in 50% acetonitrile (ACN) and 0.1% trifluoroacetic acid (TFA).
MALDI imaging was performed using the 4800 Plus MALDI TOF/TOF^TM Analyzer (AB Sciex). Image acquisition was achieved using the 4800 imaging tool software (MSI imaging). […]
The two dimensional ion image of the tissue section was analyzed using Tissue View^TM software (Applied Biosystems/MDS analytical technologies). A colour scale representing signal intensity is exported from Tissue View^TM software to provide semi quantitative information.

[8] = test system: wild-type mice; assay: Tolerability in NP42T-treated wild-type mice; type: in vivo, mouse; settings: week 2 to 11
Experimental: For animal experimentation, a cohort of 30 females was divided into four groups (WT treated with empty NP (n = 5); WT treated with NP42T (n = 8); R6/2 treated with empty NP (n = 8); R6/2 treated with NP42T (n = 9)). Administrations were performed five days a week, at the same time of the day, starting in 2-week-old mice. The treatment was performed until the mice were sacrificed (at week 11). NP42T peptide (600 μg/ml/kg) was administrated twice a day per mucosa, with two buccal injections until the mice were 4 week old, and via rectal and buccal injections for older animals older.

What does the source list for `CC[C@H](C)[C@H](NC(=O)[C@H](CC(=O)O)NC(=O)[C@H](Cc1c[nH]cn1)NC(=O)CNC(=O)[C@H](C)NC(=O)[C@H](CO)NC(=O)CNC(=O)[C@@H]1CCCN1C(=O)[C@@H](NC(=O)[C@H](CO)NC(=O)[C@@H](NC(=O)CNC(=O)[C@H](CO)NC(=O)[C@H](CO)NC(=O)[C@H](C)NC(=O)[C@H](C)NC(=O)c1ccc2c(c1)C(=O)OC21c2ccc(N(C)C)cc2Oc2cc(N(C)C)ccc21)C(C)C)[C@@H](C)O)C(=O)N[C@H](C(=O)N[C@H](C(=O)N[C@@H](CCC(=O)O)C(=O)N[C@@H](CCC(N)=O)C(=O)N1CCC[C@H]1C(=O)N[C@@H](CCCNC(=N)N)C(=O)N[C@@H](CO)C(=O)NCC(=O)NCC(=O)N[C@@H](Cc1ccc(O)cc1)C(=O)NCC(=O)N[C@@H](CCCNC(=N)N)C(=O)N[C@@H](CCCCN)C(=O)N[C@@H](CCCCN)C(=O)N[C@@H](CCCNC(=N)N)C(=O)N[C@@H](CCCNC(=N)N)C(=O)N[C@@H](CCC(N)=O)C(=O)N[C@@H](CCCNC(=N)N)C(=O)N[C@@H](CCCNC(=N)N)C(=O)N[C@@H](CCCNC(=N)N)C(=O)O)[C@@H](C)O)[C@@H](C)CC` [TAMRA-P42-TAT] (5TAMRA-AASSGVSTPGSAGHDIITEQPRSGGYGRKKRRQRRR-OH; N-terminus and C-terminus assumed)?
uptake into cultured cells [1]: taken up by almost all the cells; IC50 on HeLa cell survival (MTT test) [2]: could not be measured; detection in brain 24 hrs after ICV injection ([3]; C57BL/6 J mice, ICV 5 μg or 1 μg, 24 hrs, data not shown, n = 12): still detected; distribution in the striatum after ICV injection ([3]; wild-type C57BL/6 J mice, ICV, sacrificed 3 hours after injection, TAMRA signal, DARPP32/NeuN co-staining): largely diffusing within the neurons

Which “eye degeneration of flies expressing hHtt exon1 with expanded polyQ” value ([4]; Drosophila model of HD) does the source give for “P42: 23aa peptide lying in the N-terminus (position 480–502 aa) of normal human Htt” here?
The value was “able to prevent eye degeneration”.

And the effects on lifespan [4]?
The effects on lifespan was “partial”.

What about the “rescue of GFP-Htt^171aa-Q136 aggregation” value [5] of the same molecule?
Its value is “completely rescue”.

Which “time until full length peptide was degraded” value [6] does the source give for `CC[C@H](C)[C@H](NC(=O)[C@H](CC(=O)O)NC(=O)[C@H](Cc1c[nH]cn1)NC(=O)CNC(=O)[C@H](C)NC(=O)[C@H](CO)NC(=O)CNC(=O)[C@@H]1CCCN1C(=O)[C@@H](NC(=O)[C@H](CO)NC(=O)[C@@H](NC(=O)CNC(=O)[C@H](CO)NC(=O)[C@H](CO)NC(=O)[C@H](C)NC(=O)[C@H](C)N)C(C)C)[C@@H](C)O)C(=O)N[C@H](C(=O)N[C@H](C(=O)N[C@@H](CCC(=O)O)C(=O)N[C@@H](CCC(N)=O)C(=O)N1CCC[C@H]1C(=O)N[C@@H](CCCNC(=N)N)C(=O)N[C@@H](CO)C(=O)NCC(=O)NCC(=O)N[C@@H](Cc1ccc(O)cc1)C(=O)NCC(=O)N[C@@H](CCCNC(=N)N)C(=O)N[C@@H](CCCCN)C(=O)N[C@@H](CCCCN)C(=O)N[C@@H](CCCNC(=N)N)C(=O)N[C@@H](CCCNC(=N)N)C(=O)N[C@@H](CCC(N)=O)C(=O)N[C@@H](CCCNC(=N)N)C(=O)N[C@@H](CCCNC(=N)N)C(=O)N[C@@H](CCCNC(=N)N)C(=O)O)[C@@H](C)O)[C@@H](C)CC` [P42-TAT] (H-AASSGVSTPGSAGHDIITEQPRSGGYGRKKRRQRRR-OH) here?
Its value is ≤ 1 h.

And the “presence in the brain after Aonys administration” value [7]?
Its value is “able to reach the brain”.

What about the “toxicity noticed during the study” value [8] of the same molecule?
Its value is “no toxicity”.

Which “presence in the brain after Aonys administration” value [7] does the source give for `CC[C@H](C)[C@H](NC(=O)[C@H](CC(=O)O)NC(=O)[C@H](Cc1c[nH]cn1)NC(=O)CNC(=O)[C@H](C)NC(=O)[C@H](CO)NC(=O)CN)C(=O)N[C@H](C(=O)N[C@H](C(=O)N[C@@H](CCC(=O)O)C(=O)N[C@@H](CCC(N)=O)C(=O)N1CCC[C@H]1C(=O)N[C@@H](CCCNC(=N)N)C(=O)N[C@@H](CO)C(=O)NCC(=O)NCC(=O)N[C@@H](Cc1ccc(O)cc1)C(=O)NCC(=O)O)[C@@H](C)O)[C@@H](C)CC` [m/z 1801.84 derivative] (H-GSAGHDIITEQPRSGGYG-OH) here?
The value was “still present in the brain”.
